The text below walks through data of PubChem BioAssay (NCI).

Some test systems named below: UACC-257 melanoma; SN12C renal; OVCAR-8 ovarian; SR leukemia; K-562 leukemia; SW-620 colon; UACC-62 melanoma; UO-31 renal; HCC-2998 colon; SF-268 CNS.
Holding throughout (experiment): growth of human tumour cells (NCI), 48 h

Molecules are shown by their SMILES.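 Dose response: 5 concentrations. Exposure: 48 h. Format: 96-well plates. Endpoint: linear interpolation; highest concentration if not reached. Here, GI50 denotes the concentration required for 50% inhibition of growth. Definition used: TGI = concentration required for complete inhibition of growth.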

As for `CCOC(=O)CCc1cc(=O)oc2cc(O)cc(O)c12`, the TGI with UACC-257 melanoma, in the test on SN12C renal, in the test on OVCAR-8 ovarian, in the test on SR leukemia, in the test on K-562 leukemia and in the test with SW-620 colon was over 100 µM throughout. In addition, the TGI in the test on UACC-62 melanoma, in the test with UO-31 renal, in the test on HCC-2998 colon and in the test with SF-268 CNS was over 100 µM in each case.

Regarding `O=C1c2c(c3c4ccccc4n(CCCCCCBr)c3c3[nH]c4ccccc4c23)C(=O)N1O`, the GI50 is 2.74 µM in the test on UACC-257 melanoma; 3.68 µM in the test on SN12C renal; 3.11 µM with OVCAR-8 ovarian; 1.23 µM with SR leukemia; 2.8 µM in the test with K-562 leukemia; 3.56 µM with SW-620 colon. The GI50 is 1.69 µM in the test with UACC-62 melanoma, 2.11 µM in the test with UO-31 renal, 2.87 µM with HCC-2998 colon and 3.48 µM in the test on SF-268 CNS. In addition, the TGI with UACC-257 melanoma was found to be 6.04 µM; in the test on SN12C renal, 12.8 µM; in the test with OVCAR-8 ovarian, 10.3 µM; in the test with SR leukemia it was 4.71 µM; in the test with K-562 leukemia it was 10.2 µM; in the test on SW-620 colon, 14.3 µM. The TGI in the test on UACC-62 melanoma was 4.42 µM; with UO-31 renal, 10.1 µM; in the test on HCC-2998 colon, 12.5 µM; in the test with SF-268 CNS it was 18.3 µM.

For the compound `Cc1ccc(S(=O)(=O)N(CCOc2ccc(/C(N)=N/Cl)cc2)CCOc2ccc(/C(N)=N\Cl)cc2)cc1`, the GI50 was 23.3 µM in the test with UACC-257 melanoma; 5.52 µM in the test on SN12C renal; 12 µM in the test on OVCAR-8 ovarian; 27.8 µM with SR leukemia; 4.17 µM in the test on K-562 leukemia; 26.9 µM with SW-620 colon. The GI50 is 19 µM in the test on UACC-62 melanoma, over 100 µM with UO-31 renal, 18.2 µM with HCC-2998 colon and 5.76 µM in the test with SF-268 CNS. The TGI is 90.5 µM in the test with UACC-257 melanoma; over 100 µM with SN12C renal; over 100 µM with OVCAR-8 ovarian; over 100 µM in the test with SR leukemia; 24 µM in the test on K-562 leukemia; over 100 µM with SW-620 colon. Further, the TGI in the test on UACC-62 melanoma was 64.5 µM; in the test on UO-31 renal, over 100 µM; in the test with HCC-2998 colon, 46.3 µM; in the test with SF-268 CNS, 20 µM.

On to `N#C/C(=C/c1ccsc1)C(=O)c1ccccc1`, for which the TGI in the test with UACC-257 melanoma, with SN12C renal, in the test with OVCAR-8 ovarian, in the test on SR leukemia, in the test with K-562 leukemia and in the test with SW-620 colon was over 100 µM each time. Besides, the TGI in the test with UACC-62 melanoma, with UO-31 renal, with HCC-2998 colon and in the test with SF-268 CNS was over 100 µM throughout.

For the compound `COC(=O)c1cc2c3ccccc3[nH]c2c2ncccc12`, the GI50 was over 100 µM with UACC-257 melanoma; over 100 µM with SN12C renal; 61.2 µM in the test on OVCAR-8 ovarian; 66.4 µM with SR leukemia; 75.3 µM in the test on K-562 leukemia; 38.4 µM in the test on SW-620 colon. Moreover, the GI50 in the test on UACC-62 melanoma was over 100 µM; in the test on UO-31 renal, 69.4 µM; with HCC-2998 colon, 73.8 µM; in the test on SF-268 CNS it was 53.5 µM. The TGI with UACC-257 melanoma, in the test on SN12C renal, with OVCAR-8 ovarian, in the test on SR leukemia, with K-562 leukemia and with SW-620 colon was over 100 µM in each case. The TGI in the test with UACC-62 melanoma, in the test on UO-31 renal, in the test with HCC-2998 colon and with SF-268 CNS was over 100 µM each time.

For the compound `COc1ccc2c(c1)c(-c1nc(-c3cn(C)c4ncccc34)cs1)cn2CCCN1CCCCC1`, the GI50 in the test on UACC-257 melanoma was 1.92 µM; in the test on SN12C renal, 1.71 µM; in the test on SR leukemia, 1.81 µM; in the test on K-562 leukemia, 1.64 µM; in the test with SW-620 colon, 1.9 µM; with UACC-62 melanoma, 1.76 µM. Further, the results for the GI50 in the test with UO-31 renal, with HCC-2998 colon and in the test on SF-268 CNS were 1.51 µM, 1.56 µM and 1.6 µM, respectively. For the same compound, the TGI in the test with UACC-257 melanoma was determined as 3.66 µM; in the test on SN12C renal, 3.17 µM; in the test with SR leukemia, 3.77 µM; in the test with K-562 leukemia, 3.4 µM; with SW-620 colon it was 3.63 µM; in the test with UACC-62 melanoma it was 3.2 µM. Besides, the TGI in the test on UO-31 renal turned out to be 2.87 µM; in the test with HCC-2998 colon, 3.06 µM; in the test with SF-268 CNS, 3.21 µM.

As for `COC(=O)CCCCN=Cc1c(O)c(O)c(C(C)C)c2cc(C)c(-c3c(C)cc4c(C(C)C)c(O)c(O)c(C=NCCCCC(=O)OC)c4c3O)c(O)c12`, the GI50 with SN12C renal is 1.14 µM; in the test with OVCAR-8 ovarian it was 0.959 µM; in the test on SR leukemia, 0.917 µM; in the test with K-562 leukemia, 0.64 µM; in the test on SW-620 colon it was 1.27 µM; in the test with UO-31 renal it was 0.923 µM. Further, the GI50 in the test on HCC-2998 colon is 1.19 µM; in the test with SF-268 CNS, 1.34 µM. Further, the TGI in the test with SN12C renal was over 32.5 µM; in the test with OVCAR-8 ovarian it was over 32.5 µM; in the test on SR leukemia, 5.72 µM; in the test with K-562 leukemia, 4.09 µM; with SW-620 colon, over 32.5 µM; with UO-31 renal it was 26.5 µM. Further, the TGI in the test with HCC-2998 colon and with SF-268 CNS was over 32.5 µM each time.

Take `CC1OC(n2cc(F)c(=O)[nH]c2=O)CCC1O` (centres undefined): the TGI in the test with UACC-257 melanoma, in the test with SN12C renal, in the test on OVCAR-8 ovarian, in the test on SR leukemia, in the test on K-562 leukemia and in the test on SW-620 colon was over 100 µM in each case. Besides, the TGI in the test with UACC-62 melanoma, in the test on UO-31 renal, in the test on HCC-2998 colon and in the test on SF-268 CNS was over 100 µM each time.

As for `N#C/C(=C1C=C/C(=N/O)C(Br)=C/1)c1ccccc1`, the GI50 in the test on UACC-257 melanoma was 6.61 µM; in the test on SN12C renal it was 3.68 µM; with OVCAR-8 ovarian, 2.61 µM; in the test on SR leukemia, 0.545 µM; with K-562 leukemia, 0.878 µM; with SW-620 colon, 0.637 µM. Moreover, the GI50 in the test on UACC-62 melanoma is 2.97 µM; in the test on UO-31 renal, 2.04 µM; in the test with HCC-2998 colon it was 5.02 µM; in the test with SF-268 CNS it was 2.18 µM. In addition, the TGI is 55.9 µM in the test with UACC-257 melanoma; 16.8 µM in the test on SN12C renal; 8.41 µM in the test with OVCAR-8 ovarian; 8.48 µM in the test with SR leukemia; 12.6 µM in the test with K-562 leukemia; 10.8 µM in the test on SW-620 colon. Further, the TGI in the test with UACC-62 melanoma amounted to 16 µM; with UO-31 renal, 15.4 µM; in the test on HCC-2998 colon, 20.7 µM; in the test with SF-268 CNS, 11.7 µM.
